{"source": "patent US6852759B2", "about": "“Process for the synthesis of trans-alkenoic acids, use thereof” (priority 2002, dated 2005)", "key": {"[1]": {"test_system": "CCl4 induced hepatic injury in rats", "experiment": "Hepatoprotective activity, prophylactic study, CCl4", "format": "in vivo"}, "[2]": {"test_system": "CCl4 induced hepatic injury in rats", "experiment": "Hepatoprotective activity, curative study, CCl4", "format": "in vivo"}, "[3]": {"conditions": "12.5 mg/kg p.o. + CCl4, prophylactic"}, "[4]": {"conditions": "25 mg/kg p.o. + CCl4, prophylactic"}, "[5]": {"conditions": "50 mg/kg p.o. + CCl4, prophylactic"}, "[6]": {"conditions": "100 mg/kg p.o. + CCl4, prophylactic"}, "[7]": {"conditions": "TCA alone 100 mg/kg p.o., no CCl4, prophylactic study"}, "[8]": {"conditions": "12.5 mg/kg p.o. + CCl4, curative"}, "[9]": {"conditions": "100 mg/kg p.o. + CCl4, curative"}}}
{"molecule": "CCCCCCCC/C=C/CCCCCCCCCCCCCC(=O)O", "note": "[TCA, t-Tetracos-15-enoic acid]", "values": [{"measurement": "Serum ALP", "setting": "[1]; [3]", "result": "45.25 ± 2.37^NS μmole of p-nitrophenol formed/min/L"}, {"measurement": "Serum ALP, hepatoprotective activity percent", "setting": "[1]; [3]", "result": "(26.32 ± 6.55) percent"}, {"measurement": "Serum Bilirubin", "setting": "[1]; [3]", "result": "0.47 ± 0.01", "unit": "mg %"}, {"measurement": "Serum Bilirubin, hepatoprotective activity percent", "setting": "[1]; [3]", "result": "(47.98 ± 2.02) percent"}, {"measurement": "Serum GOT", "setting": "[1]; [3]", "result": "695.16 ± 67.28", "unit": "Units"}, {"measurement": "Serum GOT, hepatoprotective activity percent", "setting": "[1]; [3]", "result": "(33.87 ± 7.99) percent"}, {"measurement": "Serum GPT", "setting": "[1]; [3]", "result": "992.34 ± 73.25", "unit": "Units"}, {"measurement": "Serum GPT, hepatoprotective activity percent", "setting": "[1]; [3]", "result": "(41.52 ± 4.97) percent"}, {"measurement": "Serum Triglycerides", "setting": "[1]; [3]", "result": "13.51 ± 0.51^NS mg %"}, {"measurement": "Serum Triglycerides, hepatoprotective activity percent", "setting": "[1]; [3]", "result": "(26.40 ± 7.84) percent"}, {"measurement": "Serum ALP", "setting": "[1]; [4]", "result": "39.48 ± 2.46 μmole of p-nitrophenol formed/min/L"}, {"measurement": "Serum ALP, hepatoprotective activity percent", "setting": "[1]; [4]", "result": "(43.28 ± 7.81) percent"}, {"measurement": "Serum Bilirubin", "setting": "[1]; [4]", "result": "0.42 ± 0.01", "unit": "mg %"}, {"measurement": "Serum Bilirubin, hepatoprotective activity percent", "setting": "[1]; [4]", "result": "(55.33 ± 2.86) percent"}, {"measurement": "Serum GOT", "setting": "[1]; [4]", "result": "674.44 ± 53.20", "unit": "Units"}, {"measurement": "Serum GOT, hepatoprotective activity percent", "setting": "[1]; [4]", "result": "(36.33 ± 6.32) percent"}, {"measurement": "Serum GPT", "setting": "[1]; [4]", "result": "924.39 ± 39.82", "unit": "Units"}, {"measurement": "Serum GPT, hepatoprotective activity percent", "setting": "[1]; [4]", "result": "(46.10 ± 2.70) percent"}, {"measurement": "Serum Triglycerides", "setting": "[1]; [4]", "result": "12.11 ± 0.70^NS mg %"}, {"measurement": "Serum Triglycerides, hepatoprotective activity percent", "setting": "[1]; [4]", "result": "(47.72 ± 11.33) percent"}, {"measurement": "Serum ALP", "setting": "[1]; [5]", "result": "35.19 ± 2.90 μmole of p-nitrophenol formed/min/L"}, {"measurement": "Serum ALP, hepatoprotective activity percent", "setting": "[1]; [5]", "result": "(56.81 ± 9.15) percent"}, {"measurement": "Serum Bilirubin", "setting": "[1]; [5]", "result": "0.34 ± 0.01", "unit": "mg %"}, {"measurement": "Serum Bilirubin, hepatoprotective activity percent", "setting": "[1]; [5]", "result": "(67.67 ± 2.30) percent"}, {"measurement": "Serum GOT", "setting": "[1]; [5]", "result": "543.99 ± 79.93", "unit": "Units"}, {"measurement": "Serum GOT, hepatoprotective activity percent", "setting": "[1]; [5]", "result": "(51.82 ± 9.94) percent"}, {"measurement": "Serum GPT", "setting": "[1]; [5]", "result": "636.69 ± 44.49", "unit": "Units"}, {"measurement": "Serum GPT, hepatoprotective activity percent", "setting": "[1]; [5]", "result": "(65.66 ± 3.02) percent"}, {"measurement": "Serum Triglycerides", "setting": "[1]; [5]", "result": "11.89 ± 0.75^NS mg %"}, {"measurement": "Serum ALP", "setting": "[1]; [6]", "result": "30.14 ± 2.54 μmole of p-nitrophenol formed/min/L"}, {"measurement": "Serum ALP, hepatoprotective activity percent", "setting": "[1]; [6]", "result": "(72.92 ± 8.07) percent"}, {"measurement": "Serum Bilirubin", "setting": "[1]; [6]", "result": "0.26 ± 0.02", "unit": "mg %"}, {"measurement": "Serum Bilirubin, hepatoprotective activity percent", "setting": "[1]; [6]", "result": "(79.04 ± 3.57) percent"}, {"measurement": "Serum GOT", "setting": "[1]; [6]", "result": "432.08 ± 37.38", "unit": "Units"}, {"measurement": "Serum GOT, hepatoprotective activity percent", "setting": "[1]; [6]", "result": "(65.10 ± 4.50) percent"}, {"measurement": "Serum GPT", "setting": "[1]; [6]", "result": "419.72 ± 17.60", "unit": "Units"}, {"measurement": "Serum GPT, hepatoprotective activity percent", "setting": "[1]; [6]", "result": "(80.39 ± 1.19) percent"}, {"measurement": "Serum Triglycerides", "setting": "[1]; [6]", "result": "11.20 ± 0.68^NS mg %"}, {"measurement": "Serum Triglycerides, hepatoprotective activity percent", "setting": "[1]; [6]", "result": "(61.75 ± 1.44) percent"}, {"measurement": "Serum ALP", "setting": "[1]; [7]", "result": "23.15 ± 2.92 μmole of p-nitrophenol formed/min/L"}, {"measurement": "Serum Bilirubin", "setting": "[1]; [7]", "result": "0.17 ± 0.02", "unit": "mg %"}, {"measurement": "Serum GOT", "setting": "[1]; [7]", "result": "110.53 ± 25.55", "unit": "Units"}, {"measurement": "Serum GPT", "setting": "[1]; [7]", "result": "102.66 ± 28.41", "unit": "Units"}, {"measurement": "Serum Triglycerides", "setting": "[1]; [7]", "result": "6.98 ± 0.79", "unit": "mg %"}, {"measurement": "Serum ALP", "setting": "[2]; [8]", "result": "51.81 ± 3.94^NS μmole of p-nitrophenol formed/min/L"}, {"measurement": "Serum ALP, hepatoprotective activity percent", "setting": "[2]; [8]", "result": "(27.87 ± 9.48) percent"}, {"measurement": "Serum Bilirubin", "setting": "[2]; [8]", "result": "0.54 ± 0.02", "unit": "mg %"}, {"measurement": "Serum Bilirubin, hepatoprotective activity percent", "setting": "[2]; [8]", "result": "(44.52 ± 3.66) percent"}, {"measurement": "Serum GOT", "setting": "[2]; [8]", "result": "524.23 ± 34.93", "unit": "Units"}, {"measurement": "Serum GOT, hepatoprotective activity percent", "setting": "[2]; [8]", "result": "(37.12 ± 5.14) percent"}, {"measurement": "Serum GPT", "setting": "[2]; [8]", "result": "1001.86 ± 48.55", "unit": "Units"}, {"measurement": "Serum GPT, hepatoprotective activity percent", "setting": "[2]; [8]", "result": "(35.59 ± 3.37) percent"}, {"measurement": "Serum Triglycerides", "setting": "[2]; [8]", "result": "12.57 ± 0.61^NS mg %"}, {"measurement": "Serum Triglycerides, hepatoprotective activity percent", "setting": "[2]; [8]", "result": "(24.12 ± 10.07) percent"}, {"measurement": "Serum ALP", "setting": "[2]; 25 mg/kg p.o. + CCl4, curative", "result": "50.92 ± 1.62 μmole of p-nitrophenol formed/min/L"}, {"measurement": "Serum ALP, hepatoprotective activity percent", "setting": "[2]; 25 mg/kg p.o. + CCl4, curative", "result": "(34.03 ± 3.89) percent"}, {"measurement": "Serum Bilirubin", "setting": "[2]; 25 mg/kg p.o. + CCl4, curative", "result": "0.47 ± 0.03", "unit": "mg %"}, {"measurement": "Serum Bilirubin, hepatoprotective activity percent", "setting": "[2]; 25 mg/kg p.o. + CCl4, curative", "result": "(53.51 ± 4.06) percent"}, {"measurement": "Serum GOT", "setting": "[2]; 25 mg/kg p.o. + CCl4, curative", "result": "448.28 ± 54.88", "unit": "Units"}, {"measurement": "Serum GOT, hepatoprotective activity percent", "setting": "[2]; 25 mg/kg p.o. + CCl4, curative", "result": "(48.31 ± 8.808) percent"}, {"measurement": "Serum GPT", "setting": "[2]; 25 mg/kg p.o. + CCl4, curative", "result": "772.68 ± 47.66", "unit": "Units"}, {"measurement": "Serum GPT, hepatoprotective activity percent", "setting": "[2]; 25 mg/kg p.o. + CCl4, curative", "result": "(51.52 ± 3.31) percent"}, {"measurement": "Serum Triglycerides", "setting": "[2]; 25 mg/kg p.o. + CCl4, curative", "result": "11.81 ± 1.05^NS mg %"}, {"measurement": "Serum Triglycerides, hepatoprotective activity percent", "setting": "[2]; 25 mg/kg p.o. + CCl4, curative", "result": "(36.23 ± 18.23) percent"}, {"measurement": "Serum ALP", "setting": "[2]; 50 mg/kg p.o. + CCl4, curative", "result": "43.63 ± 2.82 μmole of p-nitrophenol formed/min/L"}, {"measurement": "Serum ALP, hepatoprotective activity percent", "setting": "[2]; 50 mg/kg p.o. + CCl4, curative", "result": "(51.57 ± 6.78) percent"}, {"measurement": "Serum Bilirubin", "setting": "[2]; 50 mg/kg p.o. + CCl4, curative", "result": "0.39 ± 0.02", "unit": "mg %"}, {"measurement": "Serum Bilirubin, hepatoprotective activity percent", "setting": "[2]; 50 mg/kg p.o. + CCl4, curative", "result": "(64.25 ± 3.76) percent"}, {"measurement": "Serum GOT", "setting": "[2]; 50 mg/kg p.o. + CCl4, curative", "result": "365.43 ± 29.43", "unit": "Units"}, {"measurement": "Serum GOT, hepatoprotective activity percent", "setting": "[2]; 50 mg/kg p.o. + CCl4, curative", "result": "(60.50 ± 4.33) percent"}, {"measurement": "Serum GPT", "setting": "[2]; 50 mg/kg p.o. + CCl4, curative", "result": "582.12 ± 37.77", "unit": "Units"}, {"measurement": "Serum GPT, hepatoprotective activity percent", "setting": "[2]; 50 mg/kg p.o. + CCl4, curative", "result": "(64.76 ± 2.62) percent"}, {"measurement": "Serum Triglycerides", "setting": "[2]; 50 mg/kg p.o. + CCl4, curative", "result": "11.06 ± 0.61", "unit": "mg %"}, {"measurement": "Serum Triglycerides, hepatoprotective activity percent", "setting": "[2]; 50 mg/kg p.o. + CCl4, curative", "result": "(48.86 ± 10.64) percent"}, {"measurement": "Serum ALP", "setting": "[2]; [9]", "result": "32.93 ± 2.13 μmole of p-nitrophenol formed/min/L"}, {"measurement": "Serum ALP, hepatoprotective activity percent", "setting": "[2]; [9]", "result": "(77.31 ± 5.13) percent"}, {"measurement": "Serum Bilirubin", "setting": "[2]; [9]", "result": "0.29 ± 0.02", "unit": "mg %"}, {"measurement": "Serum Bilirubin, hepatoprotective activity percent", "setting": "[2]; [9]", "result": "(76.54 ± 3.66) percent"}, {"measurement": "Serum GOT", "setting": "[2]; [9]", "result": "318.96 ± 16.15", "unit": "Units"}, {"measurement": "Serum GOT, hepatoprotective activity percent", "setting": "[2]; [9]", "result": "(67.35 ± 2.38) percent"}]}
